Assay results from patent US5508299A, “Imidazolyl-substituted cyclohexane derivatives” (Bayer Aktiengesellschaft, priority 1992, dated 1996).

Tests used:
[1] = test system: smooth muscle cells from aortas of pigs; assay: Inhibition of the proliferation of smooth muscle cells (3H-thymidine incorporation); format: cell-based, pig; details: porcine aortic smooth muscle cells
Procedure: Investigation of the inhibition of the proliferation of smooth muscle cells by the compounds according to the invention
To determine the antiproliferative action of the compounds, smooth muscle cells are used which are obtained from aortas of pigs by the media explant technique [R. Ross, J. Cell. Biol. 50, 172, 1971]. The cells are inoculated into suitable culture dishes, as a rule 96-hole plates, and cultured at 37° C. in 5% CO2 for 2-3 days in medium 199 containing 7.5% FCS and 7.5% NCS, 2 mmol L-glutamine and 15 mmol HEPES, pH 7.4. The cells are then synchronised for 2-3 days by withdrawal of serum and then stimulated into growth using serum or other factors. Test compounds are simultaneously added. After 16-20 hours, 1 μCi ^3 H-thymidine is added and after a further 4 hours the incorporation of this substance into the TCA-precipitatable DNA of the cells is determined.
To determine the IC50 values, the active compound concentration is calculated which, on sequential dilution of the active compound, causes half-maximal inhibition of the thymidine incorporation produced by 1% FCS.

[2] = test system: contractions of isolated rabbit aorta rings induced by angiotensin II (AII); assay: Inhibition of the vascular contraction induced by angiotensin II in isolated rabbit aorta rings in vitro; format: cell-based; details: Oryctolagus cuniculus, based on the 3rd = submaximal agonist concentration, read-out: IC50 against contractions induced by AII
Procedure: Investigation of the inhibition of the contraction induced by agonists
Rabbits of either sex are stunned by a blow to the back of the head and bled out, or in some cases anaesthetised with Nembutal (about 60-80 mg/kg i.v.) and sacrificed by opening the thorax. The thorax aorta is removed, freed from adhering connective tissue, divided into ring segments 1.5 mm wide and individually transferred under an initial loading of about 3.5 g to 10 ml organ baths containing Krebs-Henseleit nutrient solution, aerated with 95% O2 /5% CO2 and temperature-controlled at 37° C., of the following composition: 119 mmol/l of NaCl; 2.5 mmol/l of CaCl2 ×2H2 O; 1.2 mmol/l of KH2 PO4; 10 mmol/l of glucose; 4.8 mmol/l of KCl; 1.4 mmol/l of MgSO4 ×7 H2 O and 25 mmol/l of NaHCO3.
The contractions are determined isometrically by means of Statham UC2 cells via bridge amplifiers (ifd Mulheim or DSM Aalen) and digitalised by means of A/D converters (System 570, Keithley Munich) and assessed. The agonist dose response curves (DRCs) are plotted hourly. With each DRC, 3 or 4 individual concentrations are applied to the baths at a 4 min interval. After the end of the DRC and subsequent washing-out cycles (16 times in each case about 5 sec/min with the abovementioned nutrient solution), a 28-minute resting or incubation phase follows, within which the contractions as a rule reach the starting value again.
The height of the 3rd DRC, in a normal case, is used as a reference quantity for the assessment of the test substance to be investigated in further runs, which substance is applied to the baths in the following DRCs in increasing dose in each case at the start of the incubation period. Each aorta ring is in this case stimulated for the whole day, always with the same agonist.
Agonists and their standard concentrations (administration volume per individual dose=100 μl):
To calculate the IC50 (concentration at which the substance to be investigated causes a 50% inhibition), the effect is in each case based on the 3rd=submaximal agonist concentration.

angiotensin II receptor = target: T1, angiotensin II receptor (Bos taurus, UniProt P25104); assay: Angiotensin II receptor binding in membrane fractions of the adrenal cortex (bovine); details: bovine adrenal cortex membranes; 3H-angiotensin II (3-5 nM); 60 min, room temperature, pH 7.2
T1 construct: partially purified membrane fractions of bovine AGC using radioactive angiotensin II; from tissue; host or cells: bovine adrenal gland cortex, partially purified membrane fractions
T1 sequence (P25104 1-359): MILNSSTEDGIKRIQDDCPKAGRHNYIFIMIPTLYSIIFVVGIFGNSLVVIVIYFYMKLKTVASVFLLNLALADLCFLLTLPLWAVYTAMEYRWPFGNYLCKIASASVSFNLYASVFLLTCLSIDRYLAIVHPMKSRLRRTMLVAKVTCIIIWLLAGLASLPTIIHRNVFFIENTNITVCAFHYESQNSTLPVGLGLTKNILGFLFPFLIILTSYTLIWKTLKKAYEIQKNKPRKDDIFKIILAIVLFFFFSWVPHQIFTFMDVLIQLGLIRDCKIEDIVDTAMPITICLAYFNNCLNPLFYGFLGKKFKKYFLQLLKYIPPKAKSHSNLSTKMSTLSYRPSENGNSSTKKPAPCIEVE
Description: Interaction of the compounds according to the invention with the angiotensin II receptor in membrane fractions of the adrenal cortex (bovine)
Adrenal gland cortices from cattle (AGCs), which have been freshly removed and carefully freed from gland medulla, are comminuted in sucrose solution (0.32M) with the aid of an Ultra-Turrax (Janke & Kunkel, Staufen i.B.) to give a coarse membrane homogenate and partially purified to give membrane fractions in two centrifugation steps.
The receptor binding investigations are carried out on partially purified membrane fractions of bovine AGC using radioactive angiotensin II in an assay volume of 0.25 ml, which specifically contains the partially purified membranes (50-80 μg), ^3 H-angiotensin II (3-5 nM), test buffer solution (50 mM Tris, pH 7.2, 5 mM MgCl2) and the substances to be investigated. After an incubation period of 60 min at room temperature, the unbound radioactivity of the samples is separated by means of moistened glass fibre filters (Whatman GF/C) and the bound radioactivity is measured […] in a scintillation cocktail after washing the protein with ice-cold buffer solution (50 mM Tris/HCl, pH 7.4, 5% PEG 6000). The raw data were analysed using computer programs to give Ki or IC50 values (K1 : IC50 values corrected for the radioactivity used; IC50 values: concentration at which the substance to be investigated causes a 50% inhibition of the specific binding of the radioligand).

IC50 [2] [nM] | Ki (angiotensin II receptor) [nM] | Structure (SMILES) | Inhibition [%] at 10^-6 M [1] [%]
– | – | CCCCc1nc(Cl)c(CO)n1Cc1ccc(C2CCCCC2C(=O)N[C@H](CO)c2ccccc2)cc1 (single isomer, unassigned) [Example 11] | 100
– | – | CCCCc1nc(Cl)c(CO)n1Cc1ccc(C2CCCCC2C(=O)N[C@H](CO)c2ccccc2)cc1 (single isomer, unassigned) [Example 10] | 12
920 | 120 | CCCCc1nc(Cl)c(CO)n1Cc1ccc([C@@H]2CCCC[C@H]2C(=O)NS(=O)(=O)c2ccc(C)cc2)cc1 (relative stereo) [Example 9] | –
– | – | CCCCc1nc(Cl)c(C=O)n1Cc1ccc(C2CCCCC2C(=O)N[C@H](CO)c2ccccc2)cc1 (single isomer, unassigned) [Example 6] | 41
240 | 72 | CCCCc1nc(Cl)c(C(=O)O)n1Cc1ccc([C@@H]2CCCC[C@H]2C(=O)NS(=O)(=O)c2ccc(C)cc2)cc1 (relative stereo) [Example 13, N-(4-Tolylsulphonyl)-trans-2-[4-(2-butyl-4-chloro-5-carboxy-imidazol-1-yl-methyl)phenyl]-cyclohexane-1-carboxamide] | –
1400 | – | CCCCc1nc(Cl)c(C(=O)O)n1Cc1ccc([C@@H]2CCCC[C@H]2C(=O)O)cc1 (relative stereo) [Example 4] | –
– | – | CCCCc1nc(Cl)c(C=O)n1Cc1ccc(C2CCCCC2C(=O)N[C@H](CO)c2ccccc2)cc1 (single isomer, unassigned) [Example 7] | 100
– | 440 | CCCCc1nc(Cl)c(C=O)n1Cc1ccc([C@@H]2CCCC[C@H]2c2nnn[nH]2)cc1 (relative stereo) [Example 16, 5-{trans-2-[4-(2-Butyl-4-chloro-5-formyl-imidazol-1-yl-methyl)-phenyl]-cyclohex-1-yl}-tetrazole] | –
